Patent US7964567B2, “Monomethylvaline compounds capable of conjugation to ligands” (Seattle Genetics, Inc., priority 2003, dated 2011)
Square brackets hold non-standard residues; d marks the D form. Peptide text beside a SMILES is read from it. * marks the point of attachment. Dolaproine = CO[C@@H]([C@@H]1CCCN1)[C@@H](C)C(=O)O; Dil = CC[C@H](C)[C@H](NC)[C@@H](CC(=O)O)OC; X1 = C[C@@H](N*)[C@@H](O)c1ccccc1; NMeV = CN[C@H](C(=O)O)C(C)C

Assays:
[1] = Plasma clearance pharmacokinetics in rats; type: in vivo, Sprague-Dawley rats; details: rat, free drug
Description: Pharmacokinetic plasma clearance and stability of ADC were investigated in rats and cynomolgus monkeys. Plasma concentration was measured over time. […] Rats are a non-specific model for ErbB receptor antibodies, since the rat is not known to express HER2 receptor proteins.
AUC inf is the area under the plasma concentration-time curve from time of dosing to infinity and is a measure of the total exposure to the measured entity (drug, ADC). CL is defined as the volume of plasma cleared of the measured entity in unit time and is expressed by normalizing to body weight. T1/2 term is the half-life of the drug in the body measured during its elimination phase.
Animals were dosed by bolus tail vein injection (IV Push). […] Total antibody was measured by ELISA—ECD/GxhuFc-HRP. Antibody drug conjugate was measured by ELISA—MMAE/MMAF/ECD-Bio/SA-HRP.

SK-BR-3 cells = assay: In vitro cell proliferation assay (CellTiter-Glo), SK-BR-3 cells; type: cell-based, human; details: ADC incubated 3-5 days
Description: Cell-based in vitro assays were used to measure viability (proliferation), cytotoxicity, and induction of apoptosis (caspase activation) of the ADC of the invention.
The homogeneous assay procedure involves adding the single reagent (CellTiter-Glo® Reagent) directly to cells cultured in serum-supplemented medium. Cell washing, removal of medium and multiple pipetting steps are not required. The system detects as few as 15 cells/well in a 384-well format in 10 minutes after adding reagent and mixing. The cells may be treated continuously with ADC, or they may be treated and separated from ADC.
The homogeneous “add-mix-measure” format results in cell lysis and generation of a luminescent signal proportional to the amount of ATP present. The amount of ATP is directly proportional to the number of cells present in culture. […] Viable cells are reflected in relative luminescence units (RLU). […] Data can be recorded by luminometer or CCD camera imaging device. The luminescence output is presented as relative light units (RLU), measured over time.
Control wells were prepared containing medium and without cells. • 3. […] The plate was incubated at room temperature for 10 minutes to stabilize the luminescence signal. • 8. Luminescence was recorded and reported in graphs as RLU=relative luminescence units.

[2] = test system: CD30+ cell line Karpas 299; assay: Cytotoxicity determination (resazurin, General Procedure I), Karpas 299; type: cell-based, human; details: Karpas 299, 96 hours; for IC50: resazurin
Description: General Procedure I—Cytotoxicity determination. To evaluate the cytotoxicity of Exemplary Conjugates 7-10, cells were seeded at approximately 5-10,000 per well in 150 μl of culture medium then treated with graded doses of Exemplary Conjugates 7-10 in quadruplicates at the initiation of assay. Cytotoxicity assays were carried out for 96 hours after addition of test compounds. Fifty μl of the resazurin dye was added to each well during the last 4 to 6 hours of the incubation to assess viable cells at the end of culture. Dye reduction was determined by fluorescence spectrometry using the excitation and emission wavelengths of 535 nm and 590 nm, respectively. For analysis, the extent of resazurin reduction by the treated cells was compared to that of the untreated control cells.

## CC[C@H](C)[C@@H]([C@@H](CC(=O)N1CCC[C@H]1[C@H](OC)[C@@H](C)C(=O)N[C@@H](Cc1ccccc1)C(=O)O)OC)N(C)C(=O)[C@@H](NC(=O)[C@@H](NC)C(C)C)C(C)C [Compound 2, N-methylvaline-valine-dolaisoleuine-dolaproine-phenylalanine] (H-[NMeV]V[Dil][Dolaproine]F-OH)
[1]; Sprague-Dawley, plasma, intravenous, 200 ug/kg
  Cmax: 280 ng/mL
[1]; Sprague-Dawley, plasma, intravenous, 200 ug/kg, 200 μg/kg, read-out: T½ Term. (converted)
  half-life: 5.38 h
[1]; 200 μg/kg
  AUCinf: 0.99 µg·days/mL
  CL: 8.5 mL/h/kg

## CC[C@H](C)[C@@H]([C@@H](CC(=O)N1CCC[C@H]1[C@H](OC)[C@@H](C)C(=O)N[C@H](C)[C@@H](O)c1ccccc1)OC)N(C)C(=O)[C@@H](NC(=O)[C@@H](NC)C(C)C)C(C)C [MMAE, mono-methyl auristatin E, reference compound] (H-[NMeV]V[Dil][Dolaproine]-X1)
[1]; 206 μg/kg
  AUCinf: 3.71 µg·days/mL
  CL: 2.61 mL/h/kg
  T½ Term.: 17.8 h

## H-MC-vc-PAB-MMAE: trastuzumab conjugated via a cysteine to MC-val-cit-PAB-MMAE; preparations of different loading
SK-BR-3 cells
  IC50 (μg ADC/ml): 0.015 μg ADC/ml

## cAC10-9: cAC10 Conjugate of Compound 9
[2]
  activity compared with cAC10-val-cit-MMAE: slightly more active
  IC50: 0.5 ng/mL

## cAC10-val-cit-MMAE: cAC10 (anti-CD30) val-cit MMAE conjugate used as comparator [reference compound]
[2]
  IC50: 6 ng/mL
